# Read-outs that look alike come from different tables or passages of the source.
# Legend:
# [1] = system: Proteus rettgeri CMC 84-41; test: in vitro antibacterial MIC, agar plate dilution; format: cell-based; settings: Providencia rettgeri, CMC8441, 18 h, 35° C., read-out: MIC
# Description: (§1) The in vitro antimicrobial spectrum of the compounds of ths invention were determined by the agar plate dilution method with Mueller-Hinton agar and an inoculum of each test organism of approximately 10^4 colony forming units delivered by the Steers replicating device. The minimal inhibitory concentration (MIC) in mcg/ml is defined as the lowest concentration of test compound that inhibited visible growth after 18 hours incubation at 35° C. Results are given in Table I, with the test compounds identified by the number of their hereinafter described examples.
# [2] = system: Klebsiella pneumoniae MOR 84-4; test: in vitro antibacterial MIC, agar plate dilution; format: cell-based; settings: Klebsiella pneumoniae, MOR844, 18 h, 35° C., read-out: MIC
# Description: as §1
# [3] = system: Enterobacter aerogenes VGH 84-36; test: in vitro antibacterial MIC, agar plate dilution; format: cell-based; settings: Klebsiella aerogenes, VGH8436, 18 hours, 35° C., read-out: MIC
# Description: as §1
# Klebsiella pneumoniae AD [4] = test: in vitro antibacterial MIC, agar plate dilution; format: cell-based; settings: Klebsiella pneumoniae, 18 h, 35° C., read-out: MIC
# Description: as §1
# [5] = system: Pseudomonas aeruginosa VGH 84-4; test: in vitro antibacterial MIC, agar plate dilution; format: cell-based; settings: Pseudomonas aeruginosa, VGH844, 18 h, 35° C., read-out: MIC
# Description: as §1
# [6] = system: Staphylococcus aureus Smith; test: in vitro antibacterial MIC, agar plate dilution; format: cell-based; settings: 35° C.
# Description: as §1
# [7] = system: Escherichia coli ATCC 25922; test: in vitro antibacterial MIC, agar plate dilution; format: cell-based; settings: 35° C.
# Description: as §1
# [8] = system: Enterobacter cloacae VGH 84-37; test: in vitro antibacterial MIC, agar plate dilution; format: cell-based; settings: Enterobacter cloacae, VGH8437, 18 h, 35° C., read-out: MIC
# Description: as §1
# [9] = system: Streptococcus faecalis ATTC 29212; test: in vitro antibacterial MIC, agar plate dilution; format: cell-based; settings: Enterococcus faecalis, ATTC29212, 18 hours, 35° C., read-out: MIC
# Description: as §1
# [10] = system: Escherichia coli CMC 84-11; test: in vitro antibacterial MIC, agar plate dilution; format: cell-based; settings: 35° C.
# Description: as §1
# [11] = system: Staphylococcus aureus ATCC 25913; test: in vitro antibacterial MIC, agar plate dilution; format: cell-based; settings: ATCC25913, 18 hours, 35° C.
# Description: as §1
# [12] = system: Morganella morganii VGH 84-11; test: in vitro antibacterial MIC, agar plate dilution; format: cell-based; settings: VGH8411, 18 hours, 35° C., read-out: MIC
# Description: as §1
# Klebsiella pneumoniae AD [13] = test: in vivo antibacterial activity, survival of infected mice (Table II); parameters: species or system Charles River CD-1 mice; settings: subcutaneous
# Description: Charles River CD-1 mice were infected with either Klebsiella pneumoniae AD or Staphylococcus aureus Smith. A single subcutaneous dose of the test compound was administered 1/2 hour after infection. […] The results appear in Tables II and III, wherein the representative test compounds are identified by the number of their hereinafter described examples.
# [14] = system: Serratia marcescens K 84-18; test: in vitro antibacterial MIC, agar plate dilution; format: cell-based; settings: Serratia marcescens, K8418, 18 h, 35° C., read-out: MIC
# Description: as §1
# [15] = system: Streptococcus faecalis VGH 84-65; test: in vitro antibacterial MIC, agar plate dilution; format: cell-based; settings: Enterococcus faecalis, VGH8465, 18 h, 35° C., read-out: MIC
# Description: as §1
# [16] = system: Morganella morganii CMC 84-37; test: in vitro antibacterial MIC, agar plate dilution; format: cell-based; settings: Morganella morganii, CMC8437, 18 h, 35° C., read-out: MIC
# Description: as §1
# [17] = system: Pseudomonas aeruginosa LL-1244; test: in vitro antibacterial MIC, agar plate dilution; format: cell-based; settings: Pseudomonas aeruginosa, LL1244, 18 h, 35° C., read-out: MIC
# Description: as §1
# [18] = system: Streptococcus faecalis UCI 85-19; test: in vitro antibacterial MIC, agar plate dilution; format: cell-based; settings: Enterococcus faecalis, UCI8519, 18 h, 35° C., read-out: MIC
# Description: as §1
# Escherichia coli LL 311 = test: in vitro antibacterial MIC, agar plate dilution; format: cell-based; settings: Escherichia coli, LL311, 18 h, 35° C., read-out: MIC
# Description: as §1
# [19] = system: Staphylococcus aureus ATTC 29213; test: in vitro antibacterial MIC, agar plate dilution; format: cell-based; settings: Staphylococcus aureus, ATTC29213, 18 h, 35° C., read-out: MIC
# Description: as §1
# [20] = system: Serratia marcescens VGH 84-30; test: in vitro antibacterial MIC, agar plate dilution; format: cell-based; settings: Serratia marcescens, VGH8430, 18 h, 35° C., read-out: MIC
# Description: as §1
# [21] = system: Staphylococcus aureus VGH 84-45; test: in vitro antibacterial MIC, agar plate dilution; format: cell-based; settings: Staphylococcus aureus, VGH8445, 18 h, 35° C., read-out: MIC
# Description: as §1
# [22] = Staphylococcus aureus, 18 h, read-out: MIC
# [23] = Escherichia coli, ATCC25922, 18 h, read-out: MIC
# [24] = Escherichia coli, CMC8411, 18 h, read-out: MIC
MIC [1] [µg/mL],MIC [2] [µg/mL],MIC [3] [µg/mL],MIC (Klebsiella pneumoniae AD [4]) [µg/mL],MIC [5] [µg/mL],"MIC [6, 22] [µg/mL]","MIC [7, 23] [µg/mL]",MIC [8] [µg/mL],MIC [9] [µg/mL],"MIC [10, 24] [µg/mL]",MIC [11] [µg/mL],MIC [12] [µg/mL],Structure (SMILES),Survival Ratio 7 Days After Infection (Klebsiella pneumoniae AD [13]; 0.25 mg/kg single dose),Survival Ratio 7 Days After Infection (Klebsiella pneumoniae AD [13]; 1 mg/kg single dose),Survival Ratio 7 Days After Infection (Klebsiella pneumoniae AD [13]; 4 mg/kg single dose),Survival Ratio 7 Days After Infection (Klebsiella pneumoniae AD [13]; 16 mg/kg single dose),other results
2,2,2,1,32,0.25,1,2,0.25,1,0.25,2,"CCn1cc(C(=O)O)c(=O)c2cc(F)c(N3CCNC(c4cc(C)sc4C)C3)cc21 (stereo not drawn) [Example 48, 7-[3-(2,5-Dimethyl-3-thienyl)-1-piperazinyl]-1-ethyl-6-fluoro-1,4-dihydro-4-oxo-3-quinolinecarboxylic acid]",–,–,–,–,–
≤ 0.12,≤ 0.12,≤ 0.12,≤ 0.12,2,≤ 0.12,≤ 0.12,≤ 0.12,2,≤ 0.12,≤ 0.12,≤ 0.12,CCn1cc(C(=O)O)c(=O)c2cc(F)c(N3CCNC(CF)C3)cc21 (stereo not drawn) [Example 24],–,–,–,–,–
2,–,–,–,8,–,–,–,–,–,–,–,"CCn1cc(C(=O)O)c(=O)c2cc(F)c(N3CCN(C)C(CF)C3)c(F)c21 (single isomer, unassigned) [Example 114, (-1-1-Ethyl-6,8-difluoro-7-[3-fluoromethyl)-4-methyl-1-piperazinyl]-1,4-dihydro-4-oxo-3-quinolinecarboxylic acid]",–,–,–,–,MIC [14]: 1 µg/mL; MIC [15]: 4 µg/mL; MIC [16]: 1 µg/mL; MIC [17]: 16 µg/mL; MIC [18]: 4 µg/mL; MIC (Escherichia coli LL 311): 0.25 µg/mL; MIC [19]: 8 µg/mL; MIC [20]: 16 µg/mL; MIC ([6]; 18 hours): 0.12 µg/mL; MIC [21]: 0.25 µg/mL; MIC ([7]; 18 hours): 0.12 µg/mL; MIC ([10]; 18 hours): 0.12 µg/mL
8,16,64,8,> 256,0.5,8,16,32,8,1,8,CCn1cc(C(=O)O)c(=O)c2cc(F)c(N3CCNC(c4cc(Cl)sc4Cl)C3)cc21 (stereo not drawn) [Example 51],–,–,–,–,–

Structure (SMILES),MIC [1] [µg/mL],MIC [2] [µg/mL],MIC [3] [µg/mL],MIC (Klebsiella pneumoniae AD [4]) [µg/mL],MIC [5] [µg/mL],"MIC [6, 22] [µg/mL]","MIC [7, 23] [µg/mL]",MIC [8] [µg/mL],MIC [9] [µg/mL],"MIC [10, 24] [µg/mL]",MIC [11] [µg/mL],MIC [12] [µg/mL],Survival Ratio 7 Days After Infection (Klebsiella pneumoniae AD [13]; 0.25 mg/kg single dose),Survival Ratio 7 Days After Infection (Klebsiella pneumoniae AD [13]; 1 mg/kg single dose),Survival Ratio 7 Days After Infection (Klebsiella pneumoniae AD [13]; 4 mg/kg single dose),Survival Ratio 7 Days After Infection (Klebsiella pneumoniae AD [13]; 16 mg/kg single dose),other results
"CCn1cc(C(=O)O)c(=O)c2cc(F)c(N3CCNC(CO)C3)cc21.Cl (stereo not drawn) [Example 5, 1-Ethyl-6-fluoro-1,4-dihydro-7[3-(hydroxymethyl)-1-piperazinyl]-4-oxo-3-quinolinecarboxylic acid, hydrochloride]",1,2,16,0.5,8,8,2,1,–,1,32,0.5,0/5,0/5,0/5,0/5,Survival Ratio 7 Days After Infection (Klebsiella pneumoniae AD [13]; 64 mg/kg single dose): 5/5
"CCn1cc(C(=O)O)c(=O)c2cc(F)c(N3CCNC(c4sccc4C)C3)cc21 (stereo not drawn) [Example 16, 1-Ethyl-6-fluoro-1,4-dihydro-7-[3-(3-methyl-2-thienyl)-1-piperazinyl]-4-oxo-3-quinolinecarboxylic acid]",8,8,8,4,> 256,0.5,8,8,–,4,1,4,0/5,0/5,1/5,1/5,–

# Reference: patent US5210193A, “Piperazine derivatives” (American Cyanamid Company, priority 1990, dated 1993)
